The results in this text go back to US20210052882A1, “ENHANCED TREATMENT VOLUME AND SELECTIVE ABLATION USING ELECTROPORATION WITH ADJUVANT CALCIUM” (Virginia Tech Intellectual Properties, Inc., priority 2019, published 2021).

A short description of data set [1]: Properties of solutions (conductivity, osmolarity). The format is physicochemical. Conditions: base 250 mM sucrose, 1 mM MgCl2, 10 mM HEPES, pH 7.2-7.4. Here is the method:
All solutions consisted of the same base ingredients: 250 mM sucrose, 1 mM MgCl2, and 10 mM HEPES buffer in deionized water with a pH in the range of 7.2-7.4. […] Cell culture media contains things such as serum and antibiotics that may affect results. Finally, fresh solutions were added immediately prior to pulsing. All solutions were adjusted to have a pH between 7.2-7.4.

For data set [2], the system named is U251 malignant glioma cells. Kind of data set: H-FIRE ablation (lesion) area in collagen scaffolds, live/dead stain 24 hr after treatment. The data set is classed as cell-based. Here is the method: U251 malignant glioma cells (Sigma Aldrich, 09063001) were maintained at 5% CO2 and 37° C. in Eagle's Minimum Essential Medium (Sigma Aldrich) supplemented with 1% penicillin/streptomycin (Life Technologies), 10% fetal bovine serum (Atlanta Biologicals), 1% non-essential amino acids (Sigma Aldrich) and 1 mM sodium pyruvate (Sigma Aldrich). Cells were routinely passaged at 80-90% confluence. […] PDMS wells were treated with 1% PEI (Acros Organics) for 10 min, 0.1% glutaraldehyde (Fisher Scientific) for 20 min, and then washed twice with deionized water prior to collagen seeding to ensure collagen adhesion during treatment. Commercial rat tail collagen type I (BD Biosciences) was neutralized using a solution of 10× Dulbecco's Modified Eagle Medium (10% total volume, Sigma Aldrich), 1 N NaOH (2% collagen volume, Sigma Aldrich), and 1× Dulbecco's Modified Eagle Medium (Sigma Aldrich) to a final concentration of 5 mg/mL. […] The collagen/cell solution was dispensed into PDMS wells and PDMS tops were used to mold the collagen flat while they polymerized in a cell culture incubator for 20 min. PDMS tops were then removed and cell culture media was added. Collagen scaffolds were maintained in the incubator for 24 hr prior to treatment. […] All solutions consisted of the same base ingredients: 250 mM sucrose, 1 mM MgCl2, and 10 mM HEPES buffer in deionized water with a pH in the range of 7.2-7.4. […] Cell culture media contains things such as serum and antibiotics that may affect results. Finally, fresh solutions were added immediately prior to pulsing. All solutions were adjusted to have a pH between 7.2-7.4. The osmolarity and conductivity of the buffers used are shown in Table 1: In this example, two hollow, stainless-steel needle electrodes (Howard electronics) were inserted into the scaffolds using a custom designed electrode housing. […] H-FIRE pulses were delivered using a high-voltage pulse generator (EPULSUS®-FBM1-5, EnergyPulse Systems, Lda). Voltage waveforms were captured using a high voltage probe and oscilloscope (DPO 2012, Tektronix). […] The pulses delivered were bipolar pulses having a positive pulse duration, inter-pulse delay, and negative pulse duration (see, e.g., FIG. 1B). Inter-pulse delay was kept constant (1 μs) while pulse width was varied (1, 2, 5, 10 μs). […] For reversible threshold experiments, scaffolds were imaged immediately after treatment. To visualize ablations, a live/dead stain was performed to visualize live and dead regions of cells in the scaffold. […] Scaffolds were then washed 2× with PBS prior to imaging using an inverted microscope (DMI 6000B, Leica Microsystems) with a 5× objective. Lesion areas were quantified for each treatment using a MATLAB algorithm. Since 24 h post treatment is sufficient to allow any reversibly electroporated cells to recover (as pore resealing happens on the order of minutes), staining the cells immediately after treatment and 24 h later allows for quantification of both the reversible zone of electroporation and irreversible zones of ablation. […] Scaffolds were then washed twice with PBS prior to imaging using an inverted microscope (DMI 6000B, Leica Microsystems) with a 5× objective, filter cubes, and an EM-CCD camera (Hamamatsu C9100). The appropriate filters were used to image Calcein AM (Ex:460-500, DC: 505, EM: 570-640) and propidium iodide (EX:545/26, DC:565, EM:605/70). […] Scaffolds were then imaged immediately after treatment. […] Reversible electroporation experiments were repeated at least six times. Discrepancies in the number of replicates between conditions were due to bubbles or other defects that may have changed the electric field distribution or prohibited a reliable measurement of ablation area. These scaffolds were excluded from analysis. Two-way ANOVA was used to test for differences in cell death area due to the different applied solutions and pulse waveforms. Tukey post-hoc comparisons were used to examine differences among treatment groups. […]

For data set [3], the system named is U251 malignant glioma cells. Kind of data set: Reversible electroporation zone in collagen scaffolds imaged immediately after H-FIRE treatment. The format is cell-based. Here is the method: After pulsing, CaCl2, NaCl, KCl, and CaCl2/NaCl solutions were removed and cell culture media was added to each scaffold. For irreversible threshold experiments, the scaffolds were returned to the incubator for 24 hr prior to live/dead staining. For reversible threshold experiments, scaffolds were imaged immediately after treatment.
To visualize ablations, a live/dead stain was performed to visualize live and dead regions of cells in the scaffold. Scaffolds were incubated with 2 μM Calcein AM and 23 μM propidium iodide in phosphate buffered saline (PBS) for 30 minutes at room temperature. Scaffolds were then washed 2× with PBS prior to imaging using an inverted microscope (DMI 6000B, Leica Microsystems) with a 5× objective. Lesion areas were quantified for each treatment using a MATLAB algorithm. Since 24 h post treatment is sufficient to allow any reversibly electroporated cells to recover (as pore resealing happens on the order of minutes), staining the cells immediately after treatment and 24 h later allows for quantification of both the reversible zone of electroporation and irreversible zones of ablation.
To stain the scaffolds, media was removed and replaced with phosphate buffered saline (PBS) containing 2 μM Calcein AM (Invitrogen) and 23 μM PI (Invitrogen) and incubated at room temperature for 30 min. Scaffolds were then washed twice with PBS prior to imaging using an inverted microscope (DMI 6000B, Leica Microsystems) with a 5× objective, filter cubes, and an EM-CCD camera (Hamamatsu C9100). The appropriate filters were used to image Calcein AM (Ex:460-500, DC: 505, EM: 570-640) and propidium iodide (EX:545/26, DC:565, EM:605/70). To determine the reversible zone of electroporation, treatment followed the same electroporation protocol, but Calcein AM and PI were added to the CaCl2 and NaCl solutions at all steps prior to pulsing. Scaffolds were then imaged immediately after treatment.
Irreversible electroporation experiments were repeated 6-12 times for each condition. Reversible electroporation experiments were repeated at least six times. Discrepancies in the number of replicates between conditions were due to bubbles or other defects that may have changed the electric field distribution or prohibited a reliable measurement of ablation area. These scaffolds were excluded from analysis. Two-way ANOVA was used to test for differences in cell death area due to the different applied solutions and pulse waveforms. Tukey post-hoc comparisons were used to examine differences among treatment groups. Statistical analyses were performed with a confidence level of α=0.05 (MP Pro 14). Results are shown as means±standard deviation.
To investigate how CaCl2 and NaCl treatments affect permeabilization of the cells, the areas for reversible electroporation and their corresponding reversible electric field thresholds were characterized. Reversible electroporation thresholds for H-FIRE treatment have not been extensively characterized, making this work one of the first to quantify reversible thresholds for a range of unexplored pulse durations.

For data set [4], the system named is U251 malignant glioma cells. Kind of data set: Electric field threshold for cell death, ablation area mapped to finite element model.
Procedure: For analysis, images were separated into two channels (green—Calcein AM, red—PI) and ablation areas for the green channel were analyzed for irreversible thresholds and red channels for reversible electroporation thresholds using a custom algorithm written in MATLAB. In cases where the algorithm was unable to accurately measure ablations, coordinate points from the algorithm outlining the ablation area were used as a guide to manually trace and measure the area in ImageJ. Ablation area measurements were mapped to a finite element model of the experimental setup to determine the corresponding electric field threshold.
Treatments were simulated using the finite element method (COMSOL Multiphysics, Burlington, Mass.) and the electric field and temperature distributions were determined. The mesh was refined until there was <1% change in the electric field and temperature values along a cutline between the electrodes. The mesh consisted of 102,615 total elements. […] From the finite element model of the collagen scaffold, a relationship between lesion area and electric field magnitude is determined by performing numerical integration on the surface of the scaffold for a range of electric field magnitudes (100-3000 V/cm). A curve was constructed and fit to the data using least squares fitting in MATLAB. […] This equation was used to accurately back out the electric field thresholds for each treatment condition without needing to manually determine them using COMSOL.
From the finite element model, it is possible to determine the electric field threshold required for cell death.
Using the finite element model of H-FIRE treatment in the scaffold, the corresponding electric field thresholds for each ablation area were characterized.

The structures appear in SMILES notation.

Consider `[Cl-].[Na+]` [NaCl, sodium chloride, reference compound], for which the Conductivity in data set [1] (1 mM solution) is on record as 0.056 ± 0.001 S/m; in data set [1] (5 mM solution) it was 0.089 S/m. The Osmolarity in data set [1] (1 mM solution) was determined as 287 mOsm/L; in data set [1] (5 mM solution) it was 291 mOsm/L. In addition, in data set [2] (shorter pulse widths), the “visible lesion after H-FIRE” value was “no visible lesion”. Besides, the “reversible areas, NaCl solutions versus CaCl2 counterparts” value in data set [3] (1 mM and 5 mM, all waveforms) was “smaller reversible areas”. Besides, the “reversible zones larger than irreversible zones” value was found to be 4.68 × in data set [3] (2-1-2 waveform, 1 mM); 3.88 × in data set [3] (2-1-2 waveform, 5 mM); 5.58 × in data set [3] (5-1-5 waveform, 1 mM); 3.94 × in data set [3] (5-1-5 waveform, 5 mM); 3.17 × in data set [3] (10-1-10 waveform, 1 mM); 2.94 × in data set [3] (10-1-10 waveform, 5 mM). In addition, in data set [3] (FIG. 10), the “difference between reversible and irreversible electroporation areas” value was “largest”. Also, the electric field threshold in data set [4] (H-FIRE 10-1-10 waveform, 1 mM) is recorded as 1641±159 V/cm; in data set [4] (IRE treatment) it was 698±103 V/cm.
In data set [1] (1 mM solution), `[Cl-].[K+]` [KCl, potassium chloride] came in with a Conductivity of 0.064 S/m and an Osmolarity of 289 mOsm/L. Moreover, the “ablation size relative to the NaCl control” value in data set [2] (1 mM, H-FIRE) was “did not result in statistically significant ablation size”.
